Target: GST tagged IRAK-4 (Homo sapiens (Human), UniProt Q9NWZ3)
Assay: IRAK-4 Kinase Assay (IMAP fluorescence polarization)
Format: biochemical
Details: not given
Outline: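 Activity was read by IMAP fluorescence polarization, where phosphopeptide binding to M(III) nanoparticles raises FP. The 30-minute, 25° C reaction used 100 μM ATP, 100 nM RP7030 substrate and 0.5 nM GST-IRAK-4 in pH 7.2 Tris buffer with MgCl2, DTT and Tween 20.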

Chain of GST tagged IRAK-4 (Q9NWZ3 whole entry): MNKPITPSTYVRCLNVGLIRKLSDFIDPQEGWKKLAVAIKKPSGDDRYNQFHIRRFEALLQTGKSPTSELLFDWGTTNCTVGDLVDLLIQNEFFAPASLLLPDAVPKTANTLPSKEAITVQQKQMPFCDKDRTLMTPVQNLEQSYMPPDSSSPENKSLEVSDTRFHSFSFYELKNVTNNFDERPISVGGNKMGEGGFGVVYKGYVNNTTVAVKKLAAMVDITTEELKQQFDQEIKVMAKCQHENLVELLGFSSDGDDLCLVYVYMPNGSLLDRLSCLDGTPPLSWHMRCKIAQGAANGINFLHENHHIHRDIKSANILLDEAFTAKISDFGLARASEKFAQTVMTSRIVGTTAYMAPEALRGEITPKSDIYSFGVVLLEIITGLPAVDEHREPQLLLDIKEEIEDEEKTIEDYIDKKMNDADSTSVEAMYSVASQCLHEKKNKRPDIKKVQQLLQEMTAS

Compound | IC50 [µM]
N-(3-(1-methylpiperidin-4-yl)-1-(5-methylpyridin-2-yl)-1H-pyrazol-5-yl)pyrazolo[1,5-a]pyrimidine-3-carboxamide [Example 399] | < 0.1
N-(3-(4-(aminomethyl)cyclohexyl)-1-(p-tolyl)-1H-pyrazol-5-yl)pyrazolo[1,5-a]pyrimidine-3-carboxamide [Example 184] | < 0.1

Same assay, conditions: 100 μM ATP, 30 minutes at 25° C.

Compound | IC50 [µM]
Cc1ccc(-n2nc(C3CCN(S(=O)(=O)Cc4ccccn4)CC3)cc2NC(=O)c2cnn3cccnc23)cc1 [Example 397, N-[1-(4-methylphenyl)-3-{1-[(pyridin-2-ylmethyl)sulfonyl]piperidin-4-yl}-1H-pyrazol-5-yl]pyrazolo[1,5-a]pyrimidine-3-carboxamide] | < 0.1
CN1CCC(c2cc(NC(=O)c3cnn4cccnc34)n(-c3ccc(C4CC4)cc3F)n2)CC1 [Example 398, N-(1-(4-cyclopropyl-2-fluorophenyl)-3-(1-methylpiperidin-4-yl)-1H-pyrazol-5-yl)pyrazolo[1,5-a]pyrimidine-3-carboxamide] | < 0.1
N3-(3-(1-(methylsulfonyl)piperidin-4-yl)-1-(p-tolyl)-1H-pyrazol-5-yl)pyrazolo[1,5-a]pyrimidine-3,6-dicarboxamide [Example 192] | < 0.1

Same assay, conditions: 100 μM ATP, 30 minutes at 25° C.; μM

Compound | IC50 [µM]
Cc1ccc(-n2nc(C3CCN(S(=O)(=O)c4cccc(C(F)(F)F)n4)CC3)cc2NC(=O)c2cnn3cccnc23)cc1 [Example 394, N-[1-(4-methylphenyl)-3-(1-{[6-(trifluoromethyl)pyridin-2-yl]sulfonyl}piperidin-4-yl)-1H-pyrazol-5-yl]pyrazolo[1,5-a]pyrimidine-3-carboxamide] | < 1
Cc1ccc(-n2nc(C3CCN(S(=O)(=O)CCc4ccccc4)CC3)cc2NC(=O)c2cnn3cccnc23)cc1 [Example 395, N-[1-(4-methylphenyl)-3-{1-[(2-phenylethyl)sulfonyl]piperidin-4-yl}-1H-pyrazol-5-yl]pyrazolo[1,5-a]pyrimidine-3-carboxamide] | < 1
Cc1ccc(-n2nc(C3CCN(S(=O)(=O)c4cccc5cccnc45)CC3)cc2NC(=O)c2cnn3cccnc23)cc1 [Example 396, N-{1-(4-methylphenyl)-3-[1-(quinolin-8-ylsulfonyl)piperidin-4-yl]-1H-pyrazol-5-yl}pyrazolo[1,5-a]pyrimidine-3-carboxamide] | < 1
methyl((4-(5-(pyrazolo[1,5-a]pyrimidine-3-carboxamido)-1-(p-tolyl)-1H-pyrazol-3-yl)cyclohexyl)methyl)carbamate [Example 183] | < 1

— US9169260B2 (MERCK SHARP & DOHME CORP., priority 2011, dated 2015)
